Test results from patent publication US20250072423A1, “THIOPHENE ACETIC ACID FOR PLANT GROWTH REGULATION” (priority 2023, published 2025).

Assays:
[1] = system: tomato cotyledon explants; assay: Shoot regeneration from tomato cotyledon explants with 1 mg/L BAP (Experiment 3); assay type: cell-based, tomato cultivar Roma VF
Text: The sterilized seeds were germinated on half-strength Murashige and Skoog (MS) medium in vitro. Cotyledons from 10-day old seedlings before first true leaves emerged were used as starting explants in all the experiments. The base and tip of the cotyledons were excised and the explants were transferred with the abaxial surface in contact with the culture medium. The basic culture medium consists of MS medium with vitamins supplemented with 30 g/L sucrose and gelled with 0.8% agar, and the pH of the medium was adjusted to 5.8±0.2. […] All experiments were conducted with at least three replicates of 10 explants each.
To analyse the effects on shoot regeneration, the basic media was supplemented with 1 mg/L BAP and different concentrations of TAA, IAA, NAA, IBA and 2,4 D (0.05, 0.1, 0.5, 1.0 and 2.0 mg/L) individually. Since there are no previous reports on suitable concentration ranges for TAA in tomato regeneration, concentrations at 50.0, 100.0, 200.0 and 300.0 mg/L were analysed additionally for TAA.

[2] = system: tomato cotyledon explants; assay: Root regeneration from tomato cotyledon explants in vitro (Experiment 2); assay type: cell-based, tomato cultivar Roma VF; conditions: 0.05 and 0.1 mg/L, no other hormones; for organogenesis from tomato cotyledon explants (root formation): within 7 days
Method: Seeds of tomato cultivar Roma VF were sterilized by treating with 75% ethanol for 30 seconds at room temperature and washed with sterile water for five times. The seeds were then treated with 15% sodium hypochlorite for 10 minutes and washed five times in sterile water. The sterilized seeds were germinated on half-strength Murashige and Skoog (MS) medium in vitro. Cotyledons from 10-day old seedlings before first true leaves emerged were used as starting explants in all the experiments. The base and tip of the cotyledons were excised and the explants were transferred with the abaxial surface in contact with the culture medium. The basic culture medium consists of MS medium with vitamins supplemented with 30 g/L sucrose and gelled with 0.8% agar, and the pH of the medium was adjusted to 5.8±0.2. Plates were maintained at a light cycle of 16/8 hours day/night, temperature of 26/24° C. day/night, and relative humidity of 70% and subcultured on the same media after 14 days. Observations were made on 7, 14, 21 and 28 days of growth. All experiments were conducted with at least three replicates of 10 explants each.
In order to analyze the effect of TAA on root regeneration, the basic media were supplemented with different concentrations of TAA (0.05 and 0.1 mg/L) and further compared with individual effect of widely used auxins (IAA, NAA, IBA, 2,4 D) at similar concentrations.

[3] = system: WT Arabidopsis seedlings; assay: Root growth of WT Arabidopsis seedlings (Experiment 6); assay type: in vivo, A. thaliana; conditions: Arabidopsis thaliana, 144 h; 6 days growth, 8-day-old seedlings; read-out: concentration that reduced the primary root length to 50% of control
Method: (§1) Arabidopsis Columbia-0 wild type (WT) was used for assessing the effect of TAA on root growth and its effects on the expression of auxin-responsive genes. Seeds of A. thaliana were surface sterilized by suspending in 70% ethanol for 1 minute, followed by treatment with 10% bleach for 20 minutes. After thorough washing with sterile distilled water, the sterilized seeds were plated onto germination medium (half-strength Murashige and Skoog basal medium with vitamins (1/2 MS) medium supplemented with 1% sucrose and 0.7% plant agar) for germination. Germination was initiated by incubating the seeds in darkness at 5° C. for 2 days, followed by transfer to a light environment at 22° C. with a photoperiod of 16-h light/8-h dark for further growth. Stock solutions of TAA were prepared in DMSO (dimethyl sulfoxide). In control treatments, DMSO was used in equal amounts as present in the greatest concentration of TAA tested.
To analyze the effect of TAA on root growth, WT Arabidopsis seedlings were germinated as described and uniform-looking 8-day-old seedlings were transferred to germination medium supplemented with different concentrations of TAA (0.1, 1, 2, 5, 10, 25, 50, and 100 μM) or NAA/IAA/IBA (0.05, 0.1, 1, 2 and 5 μM). For IBA, two additional concentrations (10 and 25 μM) were also analyzed. Seedlings grown on media supplemented with an equal volume of DMSO were used as control. The seedlings were allowed to grow for 6 days and the plates were photographed at 24 h intervals. Primary root length was measured using Image J software. The difference in the number of lateral roots (LR) and root hairs was visually observed. Microscopic images were taken on a Leica Thunder Imager System (Leica Microsystems Ltd., Switzerland) and the images were processed with LAS X software.

[4] = system: tobacco leaf explants; assay: Shoot organogenesis from tobacco leaf explants in vitro (Experiment 4); assay type: cell-based, Nicotiana tabacum L. cv. Petit Havana SRI; conditions: 8 weeks
[5] = system: WT Arabidopsis seedlings; assay: Root growth of WT Arabidopsis seedlings in the presence of NPA (Experiment 7); assay type: in vivo, A. thaliana; conditions: NPA even at low concentrations (0.5 μM)
Method: as §1
To analyze the effect of TAA on root growth in the presence of NPA (N-1-naphthylphthalamic acid), WT Arabidopsis seedlings were germinated as described and uniform-looking 8-day-old seedlings were transferred to germination medium supplemented with different concentrations of TAA (5 and 10 μM) and different concentrations of NPA (0, 0.5, 1, 2, 4, and 8 μM). The seedlings were allowed to grow for 6 days and the plates were photographed at 24 h intervals. […]

[6] = 1 mg/L IAA added to 3% MS + 2 mg/L kinetin
[7] = basic shoot regeneration media: 3% MS media + 2 mg/L kinetin

## O=C(O)CCCc1c[nH]c2ccccc12 [IBA, indole-3-butyric acid]
[1]; 0.05, 0.1 and 0.5 mg/L with 1 mg/L BAP
  shoot organogenesis: callus and well-defined shoot formation
[1]; 1.0 and 2.0 mg/L with 1 mg/L BAP
  shoot organogenesis: mostly callus and some root formation
[2]
  organogenesis from tomato cotyledon explants (root formation): rapid root formation
[3]
  IC50: 10000 nM

## O=C(O)Cc1cccc2ccccc12 [NAA, naphthalene-1-acetic acid]
[1]; 0.05 mg/L with 1 mg/L BAP
  shoot organogenesis: most explants produced callus, but a few produced shoots
[1]; higher concentrations (above 0.05 up to 2.0 mg/L) with 1 mg/L BAP, Day 28
  shoot organogenesis: mostly callus by Day 28, but a few of them showed root formation
[2]
  organogenesis from tomato cotyledon explants (root formation): rapid root formation
[3]
  IC50: 50 nM

## O=C(O)Cc1c[nH]c2ccccc12 [IAA, indole-3-acetic acid, reference compound]
[4]; [6]
  increase of number of shoots regenerated per explant versus basic shoot regeneration media: more than 3 times
  increase of total number of shoots regenerated versus basic shoot regeneration media: more than 3 times
[1]; 2 mg/L with 1 mg/L BAP
  shoot organogenesis: mostly callus and root formation
[1]; 0.05, 0.1, 0.5 and 1.0 mg/L with 1 mg/L BAP
  shoot organogenesis: better shoot formation than NAA
[2]
  organogenesis from tomato cotyledon explants (root formation): rapid root formation
[3]
  IC50: 100 nM

## c1coc(CNc2ncnc3[nH]cnc23)c1 [kinetin, reference compound]
[4]; [7]
  average number of shoots per explant: 3.10
  total number of shoots regenerated per plate: 21.7

## O=C(O)c1ccccc1C(=O)Nc1cccc2ccccc12 [NPA, N-1-naphthylphthalamic acid, reference compound]
[5]
  primary root length and number of LR: reduced primary root length and the number of LR

## O=C(O)COc1ccc(Cl)cc1Cl [2,4D, 2,4-dichlorophenoxyacetic acid]
[1]; 0.05, 0.1, 0.5, 1.0 and 2.0 mg/L with 1 mg/L BAP
  shoot organogenesis: did not show any shoot formation
[2]; by Day 14
  organogenesis from tomato cotyledon explants: formed more callus and few of the explants showed longer roots
[2]
  organogenesis from tomato cotyledon explants (root formation): the explants enlarged in size and started showing signs of callus formation
